This is an account of results in patent publication US20070270418A1, “Inhibitors of P38 and Methods of Using the Same” (priority 2003, published 2007).

Holding throughout (format): biochemical
The target of one assay is T1, p38α (Homo sapiens, UniProt Q16539).
T1 construct: p38 MAP Kinases are recombinant human full-length proteins with an amino-terminal GST fusion; GST (N); purchased Upstate (Charlottesville, Va.); host or cells: E. coli
Nature of the assay: p38 MAP Kinase assay, ATF2 phosphorylation (ELISA). To be noted: 40 μM ATP. Summed up: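 Recombinant full-length GST-tagged human p38α (6 ng) pre-incubated 15 min at room temperature with compound, then reacted 30 min at 37° C with 40 μM ATP and 1.25 μM GST-ATF2 (aa 19-96) in HEPES pH 7.5/MgCl2 buffer. EDTA stop; ATF2 Thr69 phosphorylation measured by anti-phospho-ATF2 ELISA at 450 nm.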
For orientation: An ELISA detects its analyte on a solid surface through an enzyme-linked reagent.

Another assay concerns the target T2, p38β (Homo sapiens, UniProt Q15759).
T2 construct: p38 MAP Kinases are recombinant human full-length proteins with an amino-terminal GST fusion; GST (N); purchased Upstate (Charlottesville, Va.); host or cells: E. coli
Nature of the assay: Kinase selectivity, ATF2 phosphorylation ELISA. Here is the method:
All kinases and the substrate ATF2 are acquired from Upstate (Charlottesville, Va.). p38 MAP Kinases are recombinant human full-length proteins with an amino-terminal GST fusion, expressed in and purified from E. coli. ATF2 is a GST fusion protein containing amino acids 19-96 of human ATF2 expressed in E. coli. All proteins were aliquoted and stored at −80° C.
p38 MAP Kinase assays are performed using an assay buffer containing 25 mM HEPES, pH 7.5, 10 mM MgCl2, 2 mM DTT, 20 mM β-glycerophosphate, 0.1 mM Na3VO4, 40 μM ATP and 1.25 μM of ATF2, together with 6 ng of p38α protein, 12 ng p38β protein, 1.5 ng p38γ, or 0.4 ng JNK2α2. Compounds are serially diluted in DMSO and 2 μL of test compound at 25× final concentration is used. The vehicle control receives DMSO only. Test compounds are pre-incubated with 20 μl of enzyme in kinase buffer (25 mM HEPES, pH 7.5, 10 mM MgCl2, 2 mM DTT, 20 mM 3-glycerophosphate and 0.1 mM Na3VO4) at room temperature for 15 minutes. […] The reactions are incubated for 30 minutes at 37° C. and terminated by the addition of 18 μl of 200 mM EDTA. An ELISA method is used to measure the phosphorylation of ATF2 at Thr 69. High binding 96-well plates (Corning 3369) are coated with 50 μl of kinase reaction for 1 hour at 37° C. The coated plates are washed with 200 μl washing buffer (25 mM Tris HCl, pH 8.3, 192 mM glycine, 0.1% SDS and 0.05% Tween-20) three times. The plates are then washed three times with SuperBlock in TBS (Pierce, 37535). After blocking, plates are incubated with 50 μl of rabbit anti-phospho-ATF2 antibody (Cell Signaling, 9221 L, 1:500) for 30 minutes at 37° C. Plates are washed three times with washing buffer prior to incubation with 50 μl HRP-conjugated goat anti-rabbit antibody (Cell Signaling, 7074, 1:500) for 30 minutes at 37° C. Plates are then washed three times with washing buffer before incubation with 50 μl of Ultra TMB-ELISA (Pierce, 34028) for 8 minutes at room temperature. Finally, 50 μl of phosphoric acid (1 M) is added to stop reactions and plate absorbance is read at 450 nm on a SpectraMax 250 plate reader.
A selectivity panel is used to test the cross-reactivity of compounds of the invention with the β and γ isoforms of p38 MAP kinase, Src^p60 and JNK2α2. The p38β, p38γ, and JNK2α2 assays are described in Example 4. The Src^p60 assay measures the ability of compounds to inhibit Src^p60-catalyzed phosphorylation of a peptide substrate.

In another assay the target is T3, CDK2/cyclinA (Homo sapiens, UniProt P24941).
T3 construct: purchased Upstate (Charlottesville, Va.)
Nature of the assay: Broad selectivity panel, 32P incorporation. To be noted: 40 μM ATP, read-out: Percent inhibition CDK2/cyclinA; for inhibition at 0.1 µM: 0.1 μM compound; for inhibition at 1 µM: 1 μM compound. Here is the method:
(§1) Various compounds of the present invention are screened against a panel of 24 additional kinases (Upstate, Charlottesville, Va.). Compounds are tested 0.1 μM and 1 μM in reactions containing 40 μM ATP. Incorporation of radiolabeled phosphate (^32P) into each kinase substrate is measured in the presence and absence of test compound. Results are reported as the percent decrease in the amount of ^32P incorporated into the substrate in the presence of compound, compared to buffer control.

The target of a further assay is T4, Lyn (Homo sapiens, UniProt P07948).
T4 construct: purchased Upstate (Charlottesville, Va.)
The assay can be described thus: Broad selectivity panel, 32P incorporation. The following applies: 40 μM ATP, read-out: Percent inhibition Lyn; for inhibition at 0.1 µM: 0.1 μM compound; for inhibition at 1 µM: 1 μM compound. Here is the method: as §1

A further assay concerns the target T5, MAPK2 (Homo sapiens, UniProt P28482).
T5 construct: purchased Upstate (Charlottesville, Va.)
The assay can be described thus: Broad selectivity panel, 32P incorporation. The following applies: 40 μM ATP, read-out: Percent inhibition MAPK2; for inhibition at 0.1 µM: 0.1 μM compound; for inhibition at 1 µM: 1 μM compound. Here is the method: as §1

The target in the next assay is T6, MEK1 (Homo sapiens, UniProt Q02750).
T6 construct: purchased Upstate (Charlottesville, Va.)
The assay can be described thus: Broad selectivity panel, 32P incorporation. To be noted: 40 μM ATP, read-out: Percent inhibition MEK1; for inhibition at 0.1 µM: 0.1 μM compound; for inhibition at 1 µM: 1 μM compound. The procedure:
as §1

A further assay concerns the target T7, PDGFR α (Homo sapiens, UniProt P16234).
T7 construct: purchased Upstate (Charlottesville, Va.)
Nature of the assay: Broad selectivity panel, 32P incorporation. The following applies: 40 μM ATP, read-out: Percent inhibition PDGFR α; for inhibition at 0.1 µM: 0.1 μM compound; for inhibition at 1 µM: 1 μM compound. The procedure:
as §1

For another assay, the target named is T8, PKA (Homo sapiens, UniProt P17612).
T8 construct: purchased Upstate (Charlottesville, Va.)
Nature of the assay: Broad selectivity panel, 32P incorporation. To be noted: 40 μM ATP, read-out: Percent inhibition PKA; for inhibition at 0.1 µM: 0.1 μM compound; for inhibition at 1 µM: 1 μM compound. The procedure:
as §1

In a further assay the target is T9, InsR (Homo sapiens, UniProt P06213).
T9 construct: purchased Upstate (Charlottesville, Va.)
Nature of the assay: Broad selectivity panel, 32P incorporation. To be noted: 40 μM ATP, read-out: Percent inhibition InsR; for inhibition at 0.1 µM: 0.1 μM compound; for inhibition at 1 µM: 1 μM compound. Here is the method:
(§2) Various compounds of the present invention are screened against a panel of 24 additional kinases (Upstate, Charlottesville, Va.). Compounds are tested 0.1 μM and 1 μM in reactions containing 40 μM ATP. Incorporation of radiolabeled phosphate (^32P) into each kinase substrate is measured in the presence and absence of test compound.

The target in the next assay is T10, Lck (Homo sapiens, UniProt P06239).
T10 construct: purchased Upstate (Charlottesville, Va.)
The assay can be described thus: Broad selectivity panel, 32P incorporation. The following applies: 40 μM ATP, read-out: Percent inhibition Lck; for inhibition at 0.1 µM: 0.1 μM compound; for inhibition at 1 µM: 1 μM compound. Here is the method:
as §2

In a further assay the target is T11, Syk (Homo sapiens, UniProt P43405).
T11 construct: purchased Upstate (Charlottesville, Va.)
The assay can be described thus: Broad selectivity panel, 32P incorporation. The following applies: 40 μM ATP, read-out: Percent inhibition Syk; for inhibition at 0.1 µM: 0.1 μM compound; for inhibition at 1 µM: 1 μM compound. The procedure: as §2

T5 sequence (P28482 whole entry): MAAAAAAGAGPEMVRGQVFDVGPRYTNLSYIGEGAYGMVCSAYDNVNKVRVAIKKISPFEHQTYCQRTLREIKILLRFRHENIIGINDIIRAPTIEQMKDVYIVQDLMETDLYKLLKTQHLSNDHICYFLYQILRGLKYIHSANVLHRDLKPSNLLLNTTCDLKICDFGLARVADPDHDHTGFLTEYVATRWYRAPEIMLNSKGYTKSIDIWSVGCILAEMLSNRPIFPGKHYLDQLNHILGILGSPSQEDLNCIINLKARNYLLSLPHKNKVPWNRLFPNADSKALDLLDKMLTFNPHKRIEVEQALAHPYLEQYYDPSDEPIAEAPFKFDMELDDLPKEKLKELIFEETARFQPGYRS
T2 sequence (Q15759 whole entry, the tested form may be a part): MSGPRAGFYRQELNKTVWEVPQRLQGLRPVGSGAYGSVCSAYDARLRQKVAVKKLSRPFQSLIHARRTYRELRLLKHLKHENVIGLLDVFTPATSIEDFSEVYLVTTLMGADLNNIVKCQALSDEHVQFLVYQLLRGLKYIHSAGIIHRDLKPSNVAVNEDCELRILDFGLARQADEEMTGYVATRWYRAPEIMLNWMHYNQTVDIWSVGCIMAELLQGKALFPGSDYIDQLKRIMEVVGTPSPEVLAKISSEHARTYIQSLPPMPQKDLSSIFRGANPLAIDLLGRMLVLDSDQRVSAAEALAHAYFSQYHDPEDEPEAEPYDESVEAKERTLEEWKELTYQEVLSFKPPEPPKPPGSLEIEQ
T7 sequence (P16234 24-1089, species assumed): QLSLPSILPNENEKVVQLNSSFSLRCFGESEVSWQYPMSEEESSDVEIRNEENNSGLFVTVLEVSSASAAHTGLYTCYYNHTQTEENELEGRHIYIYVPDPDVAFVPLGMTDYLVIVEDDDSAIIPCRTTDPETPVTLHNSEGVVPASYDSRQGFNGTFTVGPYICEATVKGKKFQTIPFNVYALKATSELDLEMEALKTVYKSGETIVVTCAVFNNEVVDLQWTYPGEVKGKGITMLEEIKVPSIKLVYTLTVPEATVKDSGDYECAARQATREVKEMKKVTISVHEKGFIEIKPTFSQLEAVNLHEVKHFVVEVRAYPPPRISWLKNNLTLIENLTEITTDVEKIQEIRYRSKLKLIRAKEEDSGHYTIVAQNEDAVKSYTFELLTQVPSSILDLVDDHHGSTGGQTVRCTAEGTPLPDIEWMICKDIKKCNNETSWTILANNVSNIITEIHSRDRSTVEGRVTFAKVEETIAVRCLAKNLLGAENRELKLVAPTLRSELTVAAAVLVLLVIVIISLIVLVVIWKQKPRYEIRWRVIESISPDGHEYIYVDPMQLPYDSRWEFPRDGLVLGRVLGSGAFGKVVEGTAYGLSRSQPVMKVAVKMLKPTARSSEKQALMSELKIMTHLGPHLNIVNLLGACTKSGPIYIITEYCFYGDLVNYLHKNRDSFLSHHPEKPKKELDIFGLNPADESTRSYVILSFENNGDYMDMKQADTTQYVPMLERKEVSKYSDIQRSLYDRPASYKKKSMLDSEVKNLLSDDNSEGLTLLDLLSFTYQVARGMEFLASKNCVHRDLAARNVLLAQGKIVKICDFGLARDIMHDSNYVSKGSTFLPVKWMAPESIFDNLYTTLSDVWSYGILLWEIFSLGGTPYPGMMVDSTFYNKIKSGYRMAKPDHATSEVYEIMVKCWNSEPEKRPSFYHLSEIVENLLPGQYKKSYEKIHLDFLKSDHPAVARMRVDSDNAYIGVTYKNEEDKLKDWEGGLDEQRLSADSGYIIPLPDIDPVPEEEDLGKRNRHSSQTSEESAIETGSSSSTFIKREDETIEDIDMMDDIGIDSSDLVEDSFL
T6 sequence (Q02750 whole entry, species assumed): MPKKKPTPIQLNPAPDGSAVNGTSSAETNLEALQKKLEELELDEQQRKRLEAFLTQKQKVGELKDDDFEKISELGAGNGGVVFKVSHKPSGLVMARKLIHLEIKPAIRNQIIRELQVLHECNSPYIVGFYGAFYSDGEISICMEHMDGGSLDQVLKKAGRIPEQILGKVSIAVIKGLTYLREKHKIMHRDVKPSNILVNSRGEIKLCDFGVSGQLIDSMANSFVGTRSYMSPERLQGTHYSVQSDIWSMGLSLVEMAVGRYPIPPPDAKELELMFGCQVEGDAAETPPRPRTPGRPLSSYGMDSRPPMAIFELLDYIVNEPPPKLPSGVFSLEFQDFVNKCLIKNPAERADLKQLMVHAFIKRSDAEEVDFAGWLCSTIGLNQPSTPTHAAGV
T4 sequence (P07948 whole entry, species assumed): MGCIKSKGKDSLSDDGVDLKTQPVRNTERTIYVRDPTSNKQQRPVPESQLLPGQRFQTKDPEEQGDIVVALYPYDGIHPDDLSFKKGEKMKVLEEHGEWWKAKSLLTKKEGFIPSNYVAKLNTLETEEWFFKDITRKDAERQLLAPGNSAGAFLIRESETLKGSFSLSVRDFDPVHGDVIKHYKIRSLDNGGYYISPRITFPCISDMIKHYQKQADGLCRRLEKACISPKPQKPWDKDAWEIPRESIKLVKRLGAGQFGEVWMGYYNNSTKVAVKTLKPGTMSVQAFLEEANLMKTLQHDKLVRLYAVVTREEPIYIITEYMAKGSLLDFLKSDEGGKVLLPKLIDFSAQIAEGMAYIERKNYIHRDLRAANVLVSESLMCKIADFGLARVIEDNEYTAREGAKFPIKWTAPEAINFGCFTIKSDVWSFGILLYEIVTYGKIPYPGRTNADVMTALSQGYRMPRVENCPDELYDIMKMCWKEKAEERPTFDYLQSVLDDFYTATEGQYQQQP
T9 sequence (P06213 28-1382, species assumed): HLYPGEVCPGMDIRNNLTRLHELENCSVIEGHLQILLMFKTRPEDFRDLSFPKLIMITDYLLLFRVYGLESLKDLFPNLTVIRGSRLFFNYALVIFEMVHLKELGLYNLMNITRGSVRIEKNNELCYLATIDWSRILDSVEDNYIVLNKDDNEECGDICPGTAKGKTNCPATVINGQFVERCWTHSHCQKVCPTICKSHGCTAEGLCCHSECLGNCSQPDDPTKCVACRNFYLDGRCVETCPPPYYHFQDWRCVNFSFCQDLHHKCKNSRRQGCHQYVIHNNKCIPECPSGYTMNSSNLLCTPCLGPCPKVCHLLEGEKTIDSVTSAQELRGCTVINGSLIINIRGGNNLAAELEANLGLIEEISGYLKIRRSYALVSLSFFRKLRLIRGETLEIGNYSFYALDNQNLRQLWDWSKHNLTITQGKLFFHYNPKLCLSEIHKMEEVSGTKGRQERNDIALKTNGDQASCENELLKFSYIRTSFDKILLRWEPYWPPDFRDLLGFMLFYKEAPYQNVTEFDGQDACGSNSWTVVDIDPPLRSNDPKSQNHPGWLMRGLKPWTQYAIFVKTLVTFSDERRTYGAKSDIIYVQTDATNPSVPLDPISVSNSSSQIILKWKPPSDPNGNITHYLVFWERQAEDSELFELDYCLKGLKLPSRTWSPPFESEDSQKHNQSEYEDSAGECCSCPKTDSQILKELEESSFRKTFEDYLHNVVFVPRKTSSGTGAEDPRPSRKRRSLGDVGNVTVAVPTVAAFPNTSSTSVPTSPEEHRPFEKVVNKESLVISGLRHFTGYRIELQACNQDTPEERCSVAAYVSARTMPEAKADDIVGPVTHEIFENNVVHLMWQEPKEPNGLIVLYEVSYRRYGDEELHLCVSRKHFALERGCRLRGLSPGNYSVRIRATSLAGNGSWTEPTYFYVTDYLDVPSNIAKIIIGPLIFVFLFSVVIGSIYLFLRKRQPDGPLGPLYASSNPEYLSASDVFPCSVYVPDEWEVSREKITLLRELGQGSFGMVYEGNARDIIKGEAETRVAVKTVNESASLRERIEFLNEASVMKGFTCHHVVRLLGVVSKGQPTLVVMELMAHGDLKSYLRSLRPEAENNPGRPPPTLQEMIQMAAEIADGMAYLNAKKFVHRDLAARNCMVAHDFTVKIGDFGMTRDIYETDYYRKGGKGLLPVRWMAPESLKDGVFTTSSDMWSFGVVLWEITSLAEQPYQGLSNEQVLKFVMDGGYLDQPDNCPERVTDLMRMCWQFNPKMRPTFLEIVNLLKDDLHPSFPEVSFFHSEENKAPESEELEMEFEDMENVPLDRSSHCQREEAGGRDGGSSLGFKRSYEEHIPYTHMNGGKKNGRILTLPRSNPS
T10 sequence (P06239 whole entry, species assumed): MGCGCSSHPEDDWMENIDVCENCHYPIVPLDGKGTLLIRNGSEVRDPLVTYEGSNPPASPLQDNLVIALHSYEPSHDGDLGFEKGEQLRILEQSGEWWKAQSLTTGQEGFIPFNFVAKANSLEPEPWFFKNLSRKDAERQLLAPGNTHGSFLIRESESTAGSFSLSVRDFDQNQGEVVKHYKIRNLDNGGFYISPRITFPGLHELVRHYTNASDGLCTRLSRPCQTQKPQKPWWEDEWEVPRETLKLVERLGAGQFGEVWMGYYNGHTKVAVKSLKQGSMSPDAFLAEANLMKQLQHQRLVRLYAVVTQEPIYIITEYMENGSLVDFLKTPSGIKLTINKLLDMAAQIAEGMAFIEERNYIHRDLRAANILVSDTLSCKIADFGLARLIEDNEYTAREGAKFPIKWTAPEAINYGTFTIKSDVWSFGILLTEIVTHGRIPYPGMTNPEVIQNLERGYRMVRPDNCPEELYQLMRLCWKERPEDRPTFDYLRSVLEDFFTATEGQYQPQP
T1 sequence (Q16539 whole entry, the tested form may be a part): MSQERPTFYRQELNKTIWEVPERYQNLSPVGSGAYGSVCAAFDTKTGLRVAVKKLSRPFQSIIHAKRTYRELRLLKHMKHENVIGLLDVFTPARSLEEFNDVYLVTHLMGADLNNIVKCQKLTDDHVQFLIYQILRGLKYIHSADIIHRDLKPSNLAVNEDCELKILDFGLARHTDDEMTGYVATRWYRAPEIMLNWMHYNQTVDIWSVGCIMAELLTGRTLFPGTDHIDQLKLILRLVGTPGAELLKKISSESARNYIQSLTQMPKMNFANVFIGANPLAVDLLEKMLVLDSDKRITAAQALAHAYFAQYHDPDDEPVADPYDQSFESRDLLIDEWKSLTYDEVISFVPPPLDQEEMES

For orientation: IC50 means the concentration that gives 50% inhibition. Regarding `Fc1ccc(-c2nc3occn3c2-c2ccnc(N[C@H]3CN4CCC3CC4)n2)cc1` [LXXXVII], the IC50 was determined as 8.7 nM at p38α and 150 nM against p38β. For the same molecule, the “selectivity over p38β as compared to p38α” value on p38β stood at 17 fold. Besides, the inhibition at 0.1 µM at CDK2/cyclinA was 1%; at Lyn, -32%; at MAPK2 it was -4%; at MEK1 it was 3%; on PDGFR α, -6%; at PKA, -10%. Further, the figures for the inhibition at 0.1 µM on InsR, at Lck and on Syk were -8%, -15% and 17%, respectively. Further, the inhibition at 1 µM on CDK2/cyclinA was 0%; at Lyn it was -13%; on MAPK2 it was 14%; on MEK1, -1%; on PDGFR α, -11%; on PKA, -6%. Moreover, the inhibition at 1 µM was found to be 8% at InsR, 18% on Lck and 23% on Syk.
Turning to `Fc1ccc(-c2nc3occn3c2-c2ccnc(N[C@@H]3CN4CCC3CC4)n2)cc1` [LXXI], the IC50 against p38α is 27.7 nM; against p38β, 114 nM. The inhibition at 0.1 µM at CDK2/cyclinA was 0%; at Lyn, 4%; on MAPK2, -5%; at MEK1, 2%; at PDGFR α it was 10%; on PKA, 16%. Moreover, the inhibition at 0.1 µM at InsR is -25%; at Lck, 8%; at Syk, -5%. The inhibition at 1 µM worked out at 8% at CDK2/cyclinA; 10% at Lyn; 18% at MAPK2; 6% on MEK1; 9% at PDGFR α; 11% at PKA. In addition, the inhibition at 1 µM worked out at 12% at InsR, 17% at Lck and 33% at Syk.
